Assay results: PubChem BioAssay AID1963448 (Molecular Pharmacology Branch, DTP, NCI, 2024)
“And” between values parts separate entries of the source, which are not always exact repeats. Equal values may be shown once. One block for each compound: values may come before it.

Test system: 616215-338-R-J1-PDC complex spheroid growth, % test/control
Experiment: Anticancer human tumor 616215-338-R-J1-PDC patient-derived colon adenocarcinoma cell line growth inhibition [Asc]
Settings: for viability, T/C: stronger effect = lower value
Summary of the method: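 Stromal components (HUVEC and hMSC) are co-assembled with the cancer cells into multicellular spheroids. Drugs are then added singly or paired, at concentrations falling by half-log increments from a clinically achievable maximum, capped at 10 microM without known Cmax.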

[1] = curve of first compound, second compound 0.1 µM
[2] = curve of first compound, second compound 0.316 µM
[3] = curve of first compound, second compound 1 µM
[4] = second compound 0.1 µM, first compound 0.00316 µM
[5] = second compound 0.1 µM, first compound 0.01 µM
[6] = second compound 0.1 µM, first compound 0.0316 µM
[7] = second compound 0.1 µM, first compound 0.1 µM
[8] = second compound 0.316 µM, first compound 0.00316 µM
[9] = second compound 0.316 µM, first compound 0.01 µM
[10] = second compound 0.316 µM, first compound 0.0316 µM
[11] = second compound 0.316 µM, first compound 0.1 µM
[12] = second compound 1 µM, first compound 0.00316 µM
[13] = second compound 1 µM, first compound 0.01 µM
[14] = second compound 1 µM, first compound 0.0316 µM
[15] = second compound 1 µM, first compound 0.1 µM
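Also: spheroids exposed to agents for seven days before readout.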
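For viability, T/C in this document: 100% = DMSO vehicle control viability.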

IC50 (curve of first compound, second compound 0.03 µM): 153 nM | IC50 (curve of first compound, second compound 0.0949 µM): 73.4 nM | IC50 (curve of first compound, second compound 0.3 µM): 21.9 nM | IC50 (curve of first compound, second compound 0.949 µM): 9.45 nM | IC50 (curve of first compound, second compound 3 µM): < 3.16 nM
SMILES: COc1c(OCCCN2CCOCC2)ccc2c3n(c(=NC(=O)c4cnc(N)nc4)nc12)CCN3 + CCN1C(C(=O)NC23CCC(C(=O)O)(CC2)CC3)C(c2cccc(Cl)c2F)C2(C(=O)Nc3cc(Cl)ccc32)C12CCCCC2
viability, T/C (second compound 0.03 µM, first compound 0.00316 µM): 95.7% | viability, T/C (second compound 0.03 µM, first compound 0.01 µM): 99.4% | viability, T/C (second compound 0.03 µM, first compound 0.0316 µM): 99.7% | viability, T/C (second compound 0.03 µM, first compound 0.1 µM): 63.6% | viability, T/C (second compound 0.03 µM, first compound 0.316 µM): 26% | viability, T/C (second compound 0.03 µM, first compound 1 µM): 13.1% | viability, T/C (second compound 0.0949 µM, first compound 0.00316 µM): 89.3% | viability, T/C (second compound 0.0949 µM, first compound 0.01 µM): 81.2% | viability, T/C (second compound 0.0949 µM, first compound 0.0316 µM): 74.2% | viability, T/C (second compound 0.0949 µM, first compound 0.1 µM): 41% | viability, T/C (second compound 0.0949 µM, first compound 0.316 µM): 15.2% | viability, T/C (second compound 0.0949 µM, first compound 1 µM): 6.02% | viability, T/C (second compound 0.3 µM, first compound 0.00316 µM): 59.7% | viability, T/C (second compound 0.3 µM, first compound 0.01 µM): 59.2% | viability, T/C (second compound 0.3 µM, first compound 0.0316 µM): 46% | viability, T/C (second compound 0.3 µM, first compound 0.1 µM): 23.4% | viability, T/C (second compound 0.3 µM, first compound 0.316 µM): 9.03% | viability, T/C (second compound 0.3 µM, first compound 1 µM): 3.12% | viability, T/C (second compound 0.949 µM, first compound 0.00316 µM): 55.1% | viability, T/C (second compound 0.949 µM, first compound 0.01 µM): 47% | viability, T/C (second compound 0.949 µM, first compound 0.0316 µM): 38.4% | viability, T/C (second compound 0.949 µM, first compound 0.1 µM): 14% | viability, T/C (second compound 0.949 µM, first compound 0.316 µM): 5.66% | viability, T/C (second compound 0.949 µM, first compound 1 µM): 1.65% | viability, T/C (second compound 3 µM, first compound 0.00316 µM): 45.7% | viability, T/C (second compound 3 µM, first compound 0.01 µM): 40.4% | viability, T/C (second compound 3 µM, first compound 0.0316 µM): 27.4% | viability, T/C (second compound 3 µM, first compound 0.1 µM): 7.37% | viability, T/C (second compound 3 µM, first compound 0.316 µM): 3.24% | viability, T/C (second compound 3 µM, first compound 1 µM): 0.71%

IC50 (curve of compound): > 1000 nM
SMILES: CNC(C)C(=O)NC1CN(S(=O)(=O)c2cccc(S(=O)(=O)N3CCC4CCC(C(=O)NC(c5ccccc5)c5ccccc5)N4C(=O)C(NC(=O)C(C)NC)C3)c2)CCC2CCC(C(=O)NC(c3ccccc3)c3ccccc3)N2C1=O (stereo unspecified)
viability, T/C (compound 0.01 µM): 105% [middle of 9 runs] | viability, T/C (compound 0.1 µM): 101% [middle of 9 runs] | viability, T/C (compound 0.316 µM): 102% [middle of 9 runs] | viability, T/C (compound 1 µM): 101% [middle of 9 runs]

SMILES: C=C(F)C(=O)N1CCN(c2nc(OCC3CCCN3C)nc3c2CCN(c2cccc4cccc(Cl)c24)C3)CC1CC#N (stereo unspecified)
viability, T/C (compound 0.0316 µM): 75.3% and 90.8% and 99.4% | viability, T/C (compound 0.1 µM): 72.6% and 95.6% and 102% | viability, T/C (compound 0.316 µM): 59.3% and 97.8% and 100% | viability, T/C (compound 1 µM): 38.8% and 98.2% and 107% | viability, T/C (compound 10 µM): 0.82% and 0.6% and 0.47%

IC50 (curve of first compound, second compound 0.00316 µM): > 100 nM | IC50 (curve of first compound, second compound 0.01 µM): > 100 nM | IC50 (curve of first compound, second compound 0.0316 µM): > 100 nM | IC50 [1]: > 100 nM | IC50 [2]: > 100 nM | IC50 [3]: > 100 nM
SMILES: NC1CCC(NC2CC2c2ccccc2)CC1 (stereo unspecified) + CNC(C)C(=O)NC1CN(S(=O)(=O)c2cccc(S(=O)(=O)N3CCC4CCC(C(=O)NC(c5ccccc5)c5ccccc5)N4C(=O)C(NC(=O)C(C)NC)C3)c2)CCC2CCC(C(=O)NC(c3ccccc3)c3ccccc3)N2C1=O
viability, T/C (second compound 0.00316 µM, first compound 0.000316 µM): 101% | viability, T/C (second compound 0.00316 µM, first compound 0.001 µM): 94.2% | viability, T/C (second compound 0.00316 µM, first compound 0.00316 µM): 73.6% | viability, T/C (second compound 0.00316 µM, first compound 0.01 µM): 93.9% | viability, T/C (second compound 0.00316 µM, first compound 0.0316 µM): 103% | viability, T/C (second compound 0.00316 µM, first compound 0.1 µM): 91% | viability, T/C (second compound 0.01 µM, first compound 0.000316 µM): 96.7% | viability, T/C (second compound 0.01 µM, first compound 0.001 µM): 93.9% | viability, T/C (second compound 0.01 µM, first compound 0.00316 µM): 95.7% | viability, T/C (second compound 0.01 µM, first compound 0.01 µM): 100% | viability, T/C (second compound 0.01 µM, first compound 0.0316 µM): 95.2% | viability, T/C (second compound 0.01 µM, first compound 0.1 µM): 98% | viability, T/C (second compound 0.0316 µM, first compound 0.000316 µM): 92% | viability, T/C (second compound 0.0316 µM, first compound 0.001 µM): 89.8% | viability, T/C (second compound 0.0316 µM, first compound 0.00316 µM): 89.9% | viability, T/C (second compound 0.0316 µM, first compound 0.01 µM): 82.8% | viability, T/C (second compound 0.0316 µM, first compound 0.0316 µM): 96.1% | viability, T/C (second compound 0.0316 µM, first compound 0.1 µM): 95.3% | viability, T/C (second compound 0.1 µM, first compound 0.000316 µM): 100% | viability, T/C (second compound 0.1 µM, first compound 0.001 µM): 87% | viability, T/C [4]: 92.2% | viability, T/C [5]: 99% | viability, T/C [6]: 98.7% | viability, T/C [7]: 89.8% | viability, T/C (second compound 0.316 µM, first compound 0.000316 µM): 103% | viability, T/C (second compound 0.316 µM, first compound 0.001 µM): 94.2% | viability, T/C [8]: 88.4% | viability, T/C [9]: 97.5% | viability, T/C [10]: 102% | viability, T/C [11]: 90.7% | viability, T/C (second compound 1 µM, first compound 0.000316 µM): 103% | viability, T/C (second compound 1 µM, first compound 0.001 µM): 91% | viability, T/C [12]: 95.4% | viability, T/C [13]: 72.9% | viability, T/C [14]: 98.5% | viability, T/C [15]: 84.7%

IC50 (curve of compound): > 10000 nM
SMILES: O=C(c1cc(Cc2n[nH]c(=O)c3ccccc23)ccc1F)N1CCN(C(=O)C2CC2)CC1
viability, T/C (compound 0.0316 µM): 97.1% and 97.4% and 112% | viability, T/C (compound 0.1 µM): 99.8% and 94.7% and 98.3% | viability, T/C (compound 0.316 µM): 97.7% and 99.4% and 100% | viability, T/C (compound 1 µM): 96.5% and 94.7% and 99.3% | viability, T/C (compound 3.16 µM): 96.8% and 106% and 90.6% | viability, T/C (compound 10 µM): 91.1% and 90.2% and 89.1%

IC50 (curve of compound): 305 nM and 281 nM and 62.4 nM
SMILES: COc1c(OCCCN2CCOCC2)ccc2c3n(c(=NC(=O)c4cnc(N)nc4)nc12)CCN3
viability, T/C (compound 0.00316 µM): 102% (2×) and 105% | viability, T/C (compound 0.01 µM): 107% and 102% and 98.3% | viability, T/C (compound 0.0316 µM): 111% and 100% and 68% | viability, T/C (compound 0.1 µM): 95.3% and 105% and 36.9% | viability, T/C (compound 0.316 µM): 48.7% and 43.9% and 18.3% | viability, T/C (compound 1 µM): 28.9% and 26% and 11.2%

IC50 [1]: > 1000 nM | IC50 [2]: > 1000 nM | IC50 [3]: > 1000 nM | IC50 (curve of first compound, second compound 3.16 µM): < 3.16 nM | IC50 (curve of first compound, second compound 10 µM): < 3.16 nM
SMILES: CNC(C)C(=O)NC1CN(S(=O)(=O)c2cccc(S(=O)(=O)N3CCC4CCC(C(=O)NC(c5ccccc5)c5ccccc5)N4C(=O)C(NC(=O)C(C)NC)C3)c2)CCC2CCC(C(=O)NC(c3ccccc3)c3ccccc3)N2C1=O (stereo unspecified) + Cc1c(S(C)(=O)=O)c(-c2cc(F)cc(N3CCN(c4ccc(NS(=O)(=O)c5ccc(NC(CCN6CCC(C(=O)OCCCP(=O)(O)O)CC6)CSc6ccccc6)c(S(=O)(=O)C(F)(F)F)c5)cc4)CC3)c2)c(-c2ccc(Cl)cc2)n1C(C)C
viability, T/C [4]: 94% | viability, T/C [5]: 99.3% | viability, T/C [6]: 92.2% | viability, T/C [7]: 94.8% | viability, T/C (second compound 0.1 µM, first compound 0.316 µM): 100% | viability, T/C (second compound 0.1 µM, first compound 1 µM): 97.5% | viability, T/C [8]: 96.8% | viability, T/C [9]: 97.4% | viability, T/C [10]: 92% | viability, T/C [11]: 97% | viability, T/C (second compound 0.316 µM, first compound 0.316 µM): 87.9% | viability, T/C (second compound 0.316 µM, first compound 1 µM): 94.7% | viability, T/C [12]: 73.1% | viability, T/C [13]: 76% | viability, T/C [14]: 73.2% | viability, T/C [15]: 76% | viability, T/C (second compound 1 µM, first compound 0.316 µM): 69.6% | viability, T/C (second compound 1 µM, first compound 1 µM): 68.7% | viability, T/C (second compound 3.16 µM, first compound 0.00316 µM): 45.5% | viability, T/C (second compound 3.16 µM, first compound 0.01 µM): 40% | viability, T/C (second compound 3.16 µM, first compound 0.0316 µM): 40.1% | viability, T/C (second compound 3.16 µM, first compound 0.1 µM): 39.5% | viability, T/C (second compound 3.16 µM, first compound 0.316 µM): 36.2% | viability, T/C (second compound 3.16 µM, first compound 1 µM): 28.6% | viability, T/C (second compound 10 µM, first compound 0.00316 µM): 26.5% | viability, T/C (second compound 10 µM, first compound 0.01 µM): 23.9% | viability, T/C (second compound 10 µM, first compound 0.0316 µM): 27.9% | viability, T/C (second compound 10 µM, first compound 0.1 µM): 26.4% | viability, T/C (second compound 10 µM, first compound 0.316 µM): 22.4% | viability, T/C (second compound 10 µM, first compound 1 µM): 19.1%
